Measured values: patent US20110118269A1, “FUSED PYRAZINE COMPOUNDS AS THEIR SALTS, USEFUL FOR THE TREATMENT OF DEGENERATIVE AND INFLAMMATORY DISEASES” (priority 2009, published 2011)

Experiments:
MMP1 expression by SFs = test: MMP assay proof of principle: MMP1 produced by complex trigger activated SFs; assay type: cell-based; details: 48 hrs, read-out: IC50, reduction of MMP1 expression by SFs
Protocol: A 384-well format ELISA for measurement of MMP1 is developed. Various primary antibodies are tested, as well as various ELISA protocols. The following protocol is developed and validated to measure MMP1 levels in SF supernatant in 384 well plates: white Lumitrac 600 384 well plates (Greiner) are coated with 2 μg/mL anti-MMP1 antibody MAB1346 (Chemicon). The antibody is diluted in buffer 40 (1.21 g Tris base (Sigma), 0.58 g NaCl (Calbiochem) and 5 mL 10% NaN3 (Sigma) in 1 L milliQ water and adjusted to pH 8.5). After overnight incubation at 4° C., plates are washed with PBS (80 g NaCl, 2g KCl (Sigma), 11.5 g Na2HPO4.7H2O and 2 g KH2PO4 in 10 L milliQ; pH 7.4) and blocked with 100 μL/well Casein buffer (2% Casein (VWR International) in PBS). Next day, casein buffer is removed from ELISA plates and replaced by 50 μL/well EC buffer (4 g casein, 2.13 g Na2HPO4 (Sigma), 2 g bovine albumin (Sigma), 0.69 g NaH2PO4.H2O (Sigma), 0.5 g CHAPS (Roche), 23.3 g NaCl, 4 mL 0.5 M EDTA pH 8 (Invitrogen), 5 mL 10% NaN3 in 1 L milliQ and adjusted to pH 7.0). 0.25 mM DTT (Sigma) is added to the thawed samples plates. After removal of the EC buffer, 20 μL of sample is transferred to the ELISA plates. […] Readout is performed on the Luminoscan Ascent Luminometer (Labsystems) with an integration time of 200 msec or with an Envision reader (Perkin Elmer). […]

[1] = after 24 months treatment; cited from earlier work

Q: For `C[C@@H]1C[C@H]2[C@@H]3CCC4=CC(=O)C=C[C@]4(C)[C@@]3(F)[C@@H](O)C[C@]2(C)[C@@]1(O)C(=O)CO` [dexamethasone], which IC50 (MMP1 expression by SFs) is on record?
A: Its IC50 is ~1 nM.

Q: With `CN(Cc1cnc2nc(N)nc(N)c2n1)c1ccc(C(=O)N[C@@H](CCC(=O)O)C(=O)O)cc1` [methotrexate] as the compound, how does the “patients achieving an ACR50 score” value [1] read?
A: Its value is 30%.
